Measurements taken from publication PMC6792352, “Limited Chemical Structural Diversity Found to Modulate Thyroid Hormone Receptor in the Tox21 Chemical Library” (Environmental Health Perspectives, 2019).
Where a name gives a salt, the structure may show the parent alone.

Experiment: in vitro
Settings: rat, gh3-tre-luc cells, AC50 (uM) modified / 1000

Row | Compound | CC50 at 24 h [µM]
1 | O=C(O)c1cc(-c2ccc(F)cc2F)ccc1O [Diflunisal] | > 20
2 | CCCCN1C(=O)c2ccccc2C1=O [2-Butyl-1H-isoindole-1,3(2H)-dione] | > 90
3 | Cc1cc(O)c2c(c1)O[C@@]1(C)CC[C@H]3C(C)(C)CCC[C@]34CO[C@@H]2[C@H]41 [Siccanin] | 15.9
4 | CCCc1c(OCCCOc2ccc(OCC(=O)O)cc2)ccc(C(C)=O)c1O [4-[3-(4-Acetyl-3-hydroxy-2-propylphenoxy)propoxy]phenoxy-acetic acid] | > 90
5 | CNC(=O)Nc1ccc(Cl)c(Cl)c1 [N-(3,4-Dichlorophenyl)-N'-methylurea] | > 90
6 | N#Cc1c[nH]cc1-c1cccc2c1OC(F)(F)O2 [Fludioxonil] | 35.9
7 | Cc1cccc(C)c1OCC(=O)N[C@@H](Cc1ccccc1)[C@@H](O)C[C@H](Cc1ccccc1)NC(=O)[C@H](C(C)C)N1CCCNC1=O [Lopinavir] | 24.6
8 | CC(C)(C)C(=O)C(=O)O [3,3-Dimethyl-2-oxobutyric acid] | > 90
9 | CCCCCCOC(=O)CC(CC(=O)OCCCCCC)(OC(=O)CCC)C(=O)OCCCCCC [Butyryl trihexyl citrate] | > 90
10 | O=C1CN=C(c2ccccc2)c2cc(Cl)ccc2N1CC1CC1 [Prazepam] | > 90
11 | CCC(C)(Oc1ccc(C2(c3ccc(OC(C)(CC)C(=O)O)cc3)CCCCC2)cc1)C(=O)O (centres unmarked) [Clinofibrate] | > 50
12 | C=CCOCC(O)CS(=O)(=O)O (centres unmarked) [Sodium 3-(allyloxy)-2-hydroxypropanesulphonate] | > 90
13 | CN1CCN(C2=Nc3ccccc3Oc3ccc(Cl)cc32)CC1 [Loxapine succinate] | 7.25
14 | O=C(O)c1cccc(C(F)(F)F)c1 [3-(Trifluoromethyl)benzoic acid] | > 90
15 | O=C(NOC[C@H](O)CO)c1ccc(F)c(F)c1Nc1ccc(I)cc1F [PD 0325901] | > 50
16 | Cc1cc(-n2c(=O)[nH]c(=O)n(C)c2=O)ccc1Oc1ccc(S(=O)(=O)C(F)(F)F)cc1 [Toltrazuril sulfone] | > 50
17 | CC(C)(C)C1(CCc2ccc(Cl)cc2)CO1 (centres unmarked) [2-(2-(4-Chlorophenyl)ethyl)-2-(1,1-dimethylethyl)oxirane] | > 90
18 | O=C(O)COc1nn(Cc2ccccc2)c2ccccc12 [Bendazac sodium] | > 50
19 | CC(C)CC(=O)OCc1ccccc1 [Benzyl 3-methylbutanoate] | > 90
20 | C1CCC2(CCCCO2)OC1 [1,7-Dioxaspiro[5.5]undecane] | > 90
21 | c1cncc([C@@H]2CCCCN2)c1 [L-3-(2'-Piperidyl)pyridine] | > 90
22 | C=C(C)C(=O)OCC(C)C [Isobutyl methacrylate] | > 90
23 | O=C1OC(=O)C2CC=CCC12 (centres unmarked) [Tetrahydrophthalic anhydride] | > 90
24 | CCN(CC)C(C)CN1c2ccccc2Sc2ccccc21 (centres unmarked) [Ethopropazine hydrochloride] | 10.7
25 | CC(=O)NO [Acetohydroxamic acid] | > 50
26 | CCC(C)Nc1ccc(NC(C)CC)cc1 (centres unmarked) [N,N'-Bis(1-methylpropyl)-1,4-benzenediamine] | 14

Row | Compound | CC50 at 24 h [µM]
27 | CC(C)(C)NC[C@H](O)COc1cccc2c1CCCC2=O [Levobunolol hydrochloride] | > 20
28 | COC(=O)[C@H]1[C@H]2C[C@@H]3c4[nH]c5cc(OC)ccc5c4CCN3C[C@H]2C[C@@H](OC(=O)/C=C/c2cc(OC)c(OC)c(OC)c2)[C@@H]1OC [Rescinnamine] | > 20
29 | OC[C@H]1O[C@@H](n2cnc3c(S)ncnc32)[C@H](O)[C@@H]1O [Thioinosine] | > 50
30 | CCCc1nc(C)c2c(=O)[nH]c(-c3cc(S(=O)(=O)N4CCN(CC)CC4)ccc3OCC)nn12 [Vardenafil citrate] | > 50
31 | CNC(=O)[C@H]1O[C@@H](n2cnc3c(NCc4cc(Cl)ccc4OCc4cc(C)no4)ncnc32)[C@H](O)[C@@H]1N [CP-608039] | > 90
32 | C1CCC2OC2C1 (centres unmarked) [Cyclohexene oxide] | > 100
33 | OC[C@@H](O)[C@@H](O[C@@H]1O[C@H](CO)[C@H](O)[C@H](O)[C@H]1O)[C@H](O)[C@@H](O)CO [D-Lactitol monohydrate] | > 90
34 | CCCCCCOC(=O)CCCCCCCC(=O)OCCCCCC [Dihexyl nonanedioate] | > 90
35 | C=C(C)C(=O)OCC1CCCO1 (centres unmarked) [Tetrahydrofurfuryl methacrylate] | > 90
36 | O=C1CCCc2ccccc21 [1,2,3,4-Tetrahydronaphthalen-1-one] | > 90
37 | CCC(COC(=O)CCS)(COC(=O)CCS)COC(=O)CCS [2,2-Bis{[(3-sulfanylpropanoyl)oxy]methyl}butyl 3-sulfanylpropanoate] | > 90
38 | O=C(NCCN1CCOCC1)c1ccc(Cl)cc1 [Moclobemide] | > 50
39 | COc1cc(C(=O)OCCCN2CCCN(CCCOC(=O)c3cc(OC)c(OC)c(OC)c3)CC2)cc(OC)c1OC [Dilazep] | 7.82
40 | OC1OCCOC1O (centres unmarked) [1,4-Dioxane-2,3-diol] | > 90
41 | CCC(C)=O [Methyl ethyl ketone] | > 90
42 | CN(C(=O)CN(CCO)CC(=O)N(C)C(C)(C)Cc1ccccc1)C(C)(C)Cc1ccccc1 [Oxethazaine] | 16.2
43 | c1ccc(CN(Cc2ccccc2)Cc2ccccc2)cc1 [Tribenzylamine] | > 90
44 | CC(=O)Nc1ccccc1 [Acetanilide] | > 90
45 | OCC(F)(F)F [2,2,2-Trifluoroethanol] | > 100
46 | COc1ccc(N)c(C)c1 [4-Methoxy-2-methylaniline] | > 90
47 | CCCCCCOC(=O)c1ccccc1O [Hexyl salicylate] | > 90
48 | CCCCCCCCC=CCCCCCCCC1=NCCN1CCO [2-(8-Heptadecenyl)-2-imidazoline-1-ethanol] | 23.2
49 | CC(O)Cn1cnc2c1c(=O)n(C)c(=O)n2C (centres unmarked) [Proxyphylline] | > 20
50 | C=C1C[C@H]2[C@@H]3CCC4=CC(=O)C=C[C@]4(C)[C@@]3(F)[C@@H](O)C[C@]2(C)[C@@]1(O)C(=O)COC(C)=O [Fluprednidene acetate] | > 50
51 | CC(C)c1cccc(O)c1 [3-Isopropylphenol] | > 100

Same assay, conditions: rat, gh3-tre-luc cells, AC50 (uM) modified / 1000, Tox21_110001=Tox21_200578; viability, 1 nM T3 present, 24 h

Row | Compound | CC50 at 24 h [µM]
52 | CCN [Ethylammonium nitrate] | > 90

Same assay, conditions: rat, gh3-tre-luc cells, AC50 (uM) modified / 1000, Tox21_110001=Tox21_200976; viability, 1 nM T3 present, 24 h

Row | Compound | CC50 at 24 h [µM]
53 | C#CCO [Propargyl alcohol] | > 90

Same assay, conditions: rat, gh3-tre-luc cells, AC50 (uM) modified / 1000, Tox21_110001=Tox21_202383; viability, 1 nM T3 present, 24 h

Row | Compound | CC50 at 24 h [µM]
54 | CCOP(=S)(OCC)Oc1nc(Cl)c(Cl)cc1Cl [Chlorpyrifos] | 53.7

Same assay, conditions: rat, gh3-tre-luc cells, AC50 (uM) modified / 1000, Tox21_110001=Tox21_300148; viability, 1 nM T3 present, 24 h

Row | Compound | CC50 at 24 h [µM]
55 | CCOP(=S)(OCC)Oc1nc(Cl)c(Cl)cc1Cl [Chlorpyrifos] | 81.6

Same assay, conditions: rat, gh3-tre-luc cells, AC50 (uM) modified / 1000, Tox21_110001=Tox21_300787; viability, 1 nM T3 present, 24 h

Row | Compound | CC50 at 24 h [µM]
56 | CC[C@H](C)[C@H]1O[C@]2(C=C[C@@H]1C)C[C@@H]1C[C@@H](C/C=C(\C)[C@@H](O[C@H]3C[C@H](OC)[C@@H](O[C@H]4C[C@H](OC)[C@@H](NC)[C@H](C)O4)[C@H](C)O3)[C@@H](C)/C=C/C=C3\CO[C@@H]4[C@H](O)C(C)=C[C@@H](C(=O)O1)[C@]34O)O2 [Emamectin benzoate] | 1.42

Same assay, conditions: rat, gh3-tre-luc cells, AC50 (uM) modified / 1000, Tox21_110001=Tox21_302103; viability, 1 nM T3 present, 24 h

Row | Compound | CC50 at 24 h [µM]
57 | CN(C)c1ccc(C(c2ccccc2)c2ccc(N(C)C)cc2)cc1 [Leucomalachite green] | > 90

Same assay, conditions: rat, gh3-tre-luc cells, AC50 (uM) modified / 1000, Tox21_110001=Tox21_302196; viability, 1 nM T3 present, 24 h

Row | Compound | CC50 at 24 h [µM]
58 | CC(C)C(C)(N)C#N (centres unmarked) [2-Amino-2,3-dimethylbutanenitrile] | > 90

Same assay, conditions: rat, gh3-tre-luc cells, AC50 (uM) modified / 1000, Tox21_110001=Tox21_400070; viability, 1 nM T3 present, 24 h

Row | Compound | CC50 at 24 h [µM]
59 | COc1cc(OC)c(OC)cc1C=O [2,4,5-Trimethoxybenzaldehyde] | > 90
